Results published in patent publication US12421254B2, “KRAS modulators and uses thereof” (Quanta Therapeutics, Inc., priority 2023, dated 2025).

Assays:
[1] = target: GST-tagged KRAS-G12D (2-169) (Homo sapiens, UniProt P01116, G12D); test: Nucleotide exchange assay (NEA), SOS-mediated, HTRF, KRAS G12D; assay type: biochemical; settings: Table 4; IC50 extracted at 30 min; 20 nM SOScat; read-out: NEA G12D IC50
Text: (§1) This activity is tightly regulated by GTPase activating proteins (GAPs) and guanine nucleotide exchange factors (GEFs). GEFs, such as SOS1/2, activate Ras proteins by exchanging GDP for GTP, thus returning Ras to its active conformation (Simanshu, Nissley, & McCormick, 2017). […] Homogenous time resolved fluorescence (HTRF) was used to detect SOS-mediated binding of a fluorescent GTP analog, GTP-DY-647P1 (Jena Biosciences NU-820-647P1) to GST-tagged KRAS-G12D (2-169) or to GST-tagged KRAS-G12V (2-169, Reaction Biology, MSC-11-540).
(§2) GST-tagged KRAS-G12D (2-169) and anti-GST MAb Tb Cryptate Gold (CisBio 61GSTTLB) were diluted into assay buffer (20 mM HEPES, pH 7.3, 150 mM NaCl, 5 mM MgCl2, 0.05% BSA 0.0025% NP40, 1 mM DTT) to prepare a 2.5× donor solution. 5× compound was added to the protein mixture and incubated for 1 h at RT. 2.5× acceptor solution containing SOS1cat (564-1049, Reaction Biology MSC-11-502) and GTP-DY-647P1 were then added to the donor KRAS mixture such that the final concentration of the reaction contained 0.25 nM GST-tagged KRAS-G12D (2-169), 20 nM SOScat, and 150 nM GTP-DY-647P1. The reaction was monitored using at RT with the Envision multimode plate reader (Ex/Em 337/665, […]) up to 90 minutes at 5 minute intervals. To monitor KRAS-G12V SOS-mediated nucleotide exchange, 80 nM SOS was added to reaction instead of 20 nM. All other components were the same as previously described. Data was blanked to reactions without SOS1 and % inhibition was calculated such that DMSO only =0% and blank=100%. Curve fitting was done using a 4 parameter fit. Reported IC50 values were extracted at 30 min and 90 min for the KRAS-G12D and KRAS-G12V assays, respectively.
NEA KRAS G12D IC50 (uM) values of selected compounds are depicted in Table 2 with compounds having a value <0.01 uM as ++++; ≥0.01 uM to 0.1 uM as +++; ≥0.1 uM to 1 uM as ++; ≥1 uM to 20 uM as +; and ≥20 uM as NA.

[2] = target: GST-tagged KRAS-G12V (2-169) (Homo sapiens, UniProt P01116, G12V); test: Nucleotide exchange assay (NEA), SOS-mediated, HTRF, KRAS G12V; assay type: biochemical; settings: Table 4; IC50 extracted at 90 min; 80 nM SOS
Text: as §1, §2

GST-tagged KRAS-G12V (2-169), sequence (P01116 2-169 isoform P01116-2 G12V): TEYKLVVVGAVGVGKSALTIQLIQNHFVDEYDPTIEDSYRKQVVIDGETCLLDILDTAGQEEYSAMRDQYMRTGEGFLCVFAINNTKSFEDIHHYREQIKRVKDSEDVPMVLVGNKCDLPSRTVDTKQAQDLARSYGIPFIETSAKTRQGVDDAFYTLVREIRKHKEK
GST-tagged KRAS-G12D (2-169), sequence (P01116 2-169 isoform P01116-2 G12D): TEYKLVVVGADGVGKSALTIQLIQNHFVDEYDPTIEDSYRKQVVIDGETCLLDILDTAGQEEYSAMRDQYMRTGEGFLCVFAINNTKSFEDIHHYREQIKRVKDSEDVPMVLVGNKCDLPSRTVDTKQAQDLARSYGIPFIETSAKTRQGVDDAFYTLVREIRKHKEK

SMILES	IC50 [1] [µM]	IC50 [2] [µM]
CN(Cc1cnsc1)c1nc(OC[C@@]23CCCN2C[C@H](F)C3)nc(N2CC3(CCc4sc(N)c(C#N)c43)C2)n1 [Compound 147, 2-amino-1′-[4-[[(2R,8S)-2-fluoro-1,2,3,5,6,7-hexahydropyrrolizin-8-yl]methoxy]-6-[isothiazol-4-ylmethyl(methyl)amino]-1,3,5-triazin-2-yl]spiro[5,6-dihydrocyclopenta[b]thiophene-4,3′-azetidine]-3-carbonitrile]	0.1 to 1	0.01 to 0.1
N#Cc1c(N)sc2c1C1(CN(c3nc(OC[C@@]45CCCN4C[C@H](F)C5)nc(N4CCC5(CC4)COC5=O)n3)C1)SC2 [Compound 283, 2-amino-1′-[4-[[(2R,8S)-2-fluoro-1,2,3,5,6,7-hexahydropyrrolizin-8-yl]methoxy]-6-(3-oxo-2-oxa-7-azaspiro[3.5]nonan-7-yl)-1,3,5-triazin-2-yl]spiro[6H-thieno[3,4-b]thiophene-4,3′-azetidine]-3-carbonitrile]	0.1 to 1	0.1 to 1
CCN(c1nc(OC[C@@]23CCCN2C[C@H](F)C3)nc(N2CC3(C2)c2c(sc(N)c2C#N)C2CC23)n1)[C@H](C)c1cccnc1N (stereo partly drawn) [Compound 212, 8-amino-1′-[4-[[(1R)-1-(2-amino-3-pyridyl)ethyl]-ethyl-amino]-6-[[(2R,8S)-2-fluoro-1,2,3,5,6,7-hexahydropyrrolizin-8-yl]methoxy]-1,3,5-triazin-2-yl]spiro[9-thiatricyclo[4.3.0.02,4]nona-1(6),7-diene-5,3′-azetidine]-7-carbonitrile]	< 0.01	< 0.01
CN(CC(=O)NC(=N)N)c1nc(OC[C@@]23CCCN2C[C@H](F)C3)nc(N2CC3(C2)SCc2sc(N)c(C#N)c23)n1 [Compound 215, 2-[[4-(2-amino-3-cyano-spiro[6H-thieno[3,4-b]thiophene-4,3′-azetidine]-1′-yl)-6-[[(2R,8S)-2-fluoro-1,2,3,5,6,7-hexahydropyrrolizin-8-yl]methoxy]-1,3,5-triazin-2-yl]-methyl-amino]-N-carbamimidoyl-acetamide]	0.1 to 1	0.1 to 1
N#Cc1c(N)sc2c1C1(CN(c3nc(OC[C@@]45CCCN4C[C@H](F)C5)nc(N(CCN)C4(C#N)CC4)n3)C1)SC2 [Compound 272, 2-amino-1′-[4-[2-aminoethyl-(1-cyanocyclopropyl)amino]-6-[[(2R,8S)-2-fluoro-1,2,3,5,6,7-hexahydropyrrolizin-8-yl]methoxy]-1,3,5-triazin-2-yl]spiro[6H-thieno[3,4-b]thiophene-4,3′-azetidine]-3-carbonitrile; formic acid]	< 0.01	0.01 to 0.1
N#Cc1c(N)sc2c1C1(CN(c3nc(OCC4(CN5CCOCC5)CC4)nc(N4CCNC[C@H]4CO)n3)C1)SC2 [Compound 186, (S)-2′-amino-1-(4-(2-(hydroxymethyl)piperazin-1-yl)-6-((1-(morpholinomethyl)cyclopropyl)methoxy)-1,3,5-triazin-2-yl)-6′H-spiro[azetidine-3,4′-thieno[3,4-b]thiophene]-3′-carbonitrile]	< 0.01	0.01 to 0.1
C[C@H](c1cccnc1N)N(C)c1nc(OC[C@@]23CCCN2C[C@H](F)C3)nc(N2CCC3(CCCc4sc(N)c(C#N)c43)C2=O)n1 (single isomer, unassigned) [Compound 175B, (*)-2-amino-1′-(4-(((R)-1-(2-aminopyridin-3-yl)ethyl)(methyl)amino)-6-(((2R,7aS)-2-fluorotetrahydro-1H-pyrrolizin-7a(5H)-yl)methoxy)-1,3,5-triazin-2-yl)-2′-oxo-6,7-dihydro-5H-spiro[benzo[b]thiophene-4,3′-pyrrolidine]-3-carbonitrile]	0.1 to 1	< 0.01
CCN(c1nc(OC[C@@]23CCCN2C[C@H](F)C3)nc(N2CC3(C2)SCc2sc(N)c(C#N)c23)n1)C1(C(N)=O)CC1 [Compound 234, 1-[[4-(2-amino-3-cyano-spiro[6H-thieno[3,4-b]thiophene-4,3′-azetidine]-1′-yl)-6-[[(2R,8S)-2-fluoro-1,2,3,5,6,7-hexahydropyrrolizin-8-yl]methoxy]-1,3,5-triazin-2-yl]-ethyl-amino]cyclopropanecarboxamide]	0.1 to 1	0.01 to 0.1
N#Cc1c(N)sc2c1C1(CC2)CN(c2nc(OC[C@@]34CCCN3C[C@H](F)C4)nc(N3CCC[C@H](C#N)[C@@H]3CO)n2)C1 (racemic) [Compound 63, 2-amino-1′-[4-[rac-(2R,3S)-3-cyano-2-(hydroxymethyl)-1-piperidyl]-6-[[(2R,8S)-2-fluoro-1,2,3,5,6,7-hexahydropyrrolizin-8-yl]methoxy]-1,3,5-triazin-2-yl]spiro[3a,5-dihydrocyclopenta[b]thiophene-4,3′-azetidine]-3-carbonitrile]	0.1 to 1	0.1 to 1
C[C@H](c1ccc(P(C)(C)=O)cc1)N(C)c1nc(OC[C@@]23CCCN2C[C@H](F)C3)nc(N2CC3(C2)SCc2sc(N)c(C#N)c23)n1 [Compound 229, 2′-amino-1-(4-(((R)-1-(4-(dimethylphosphoryl)phenyl)ethyl)(methyl)amino)-6-(((2R,7aS)-2-fluorotetrahydro-1H-pyrrolizin-7a(5H)-yl)methoxy)-1,3,5-triazin-2-yl)-6′H-spiro[azetidine-3,4′-thieno[3,4-b]thiophene]-3′-carbonitrile]	1 to 20	1 to 20
CC(c1ccn(C)n1)N(C)c1nc(OC[C@@]23CCCN2C[C@H](F)C3)nc(N2CC3(CCc4sc(N)c(C#N)c43)C2)n1 (stereo partly drawn) [Compound 119, 2-amino-1′-[4-[[(2R,8S)-2-fluoro-1,2,3,5,6,7-hexahydropyrrolizin-8-yl]methoxy]-6-[methyl-[1-(1-methylpyrazol-3-yl)ethyl]amino]-1,3,5-triazin-2-yl]spiro[5,6-dihydrocyclopenta[b]thiophene-4,3′-azetidine]-3-carbonitrile]	1 to 20	1 to 20
CN(Cc1ccn[nH]1)c1nc(OC[C@@]23CCCN2C[C@H](F)C3)nc(N2CC3(CCc4sc(N)c(C#N)c43)C2)n1 (racemic) [Compound 105, 2-amino-1′-[4-[methyl(1H-pyrazol-5-ylmethyl)amino]-6-[[rac-(2R,8S)-2-fluoro-1,2,3,5,6,7-hexahydropyrrolizin-8-yl]methoxy]-1,3,5-triazin-2-yl]spiro[5,6-dihydrocyclopenta[b]thiophene-4,3′-azetidine]-3-carbonitrile]	1 to 20	0.1 to 1
CC(c1ccnn1C)N(C)c1nc(OC[C@@]23CCCN2C[C@H](F)C3)nc(N2CC3(CCc4sc(N)c(C#N)c43)C2)n1 (stereo partly drawn) [Compound 125, 2-amino-1′-[4-[[(2R,8S)-2-fluoro-1,2,3,5,6,7-hexahydropyrrolizin-8-yl]methoxy]-6-[methyl-[i-(2-methylpyrazol-3-yl)ethyl]amino]-1,3,5-triazin-2-yl]spiro[5,6-dihydrocyclopenta[b]thiophene-4,3′-azetidine]-3-carbonitrile]	1 to 20	0.01 to 0.1
CC(=O)N1CCC(N(C)c2nc(OC[C@@]34CCCN3C[C@H](F)C4)nc(N3CC4(C3)SCc3sc(N)c(C#N)c34)n2)C1C (stereo partly drawn) [Compound 260, 1′-[4-[(1-acetyl-2-methyl-pyrrolidin-3-yl)-methyl-amino]-6-[[(2R,8S)-2-fluoro-1,2,3,5,6,7-hexahydropyrrolizin-8-yl]methoxy]-1,3,5-triazin-2-yl]-2-amino-spiro[6H-thieno[3,4-b]thiophene-4,3′-azetidine]-3-carbonitrile]	0.1 to 1	0.01 to 0.1
CC(c1c[nH]nc1Cl)N(C)c1nc(OC[C@@]23CCCN2C[C@H](F)C3)nc(N2CC3(CCc4sc(N)c(C#N)c43)C2)n1 (stereo partly drawn) [Compound 140, 2-amino-1′-[4-[1-(3-chloro-1H-pyrazol-4-yl)ethyl-methyl-amino]-6-[[(2R,8S)-2-fluoro-1,2,3,5,6,7-hexahydropyrrolizin-8-yl]methoxy]-1,3,5-triazin-2-yl]spiro[5,6-dihydrocyclopenta[b]thiophene-4,3′-azetidine]-3-carbonitrile]	1 to 20	0.1 to 1
CC(c1cccnc1N)N(C)c1nc(OC[C@@]23CCCN2C[C@H](F)C3)nc(N2CC3(CCc4sc(N)c(C#N)c43)C2)n1 (stereo partly drawn) [Compound 83, 2-amino-1′-[4-[1-(2-amino-3-pyridyl)ethyl-methyl-amino]-6-[[(2R,8S)-2-fluoro-1,2,3,5,6,7-hexahydropyrrolizin-8-yl]methoxy]-1,3,5-triazin-2-yl]spiro[5,6-dihydrocyclopenta[b]thiophene-4,3′-azetidine]-3-carbonitrile]	< 0.01	< 0.01
